Results as given in ChEMBL document CHEMBL6096738, “Optimization of Single Relaxin B-Chain Peptide Leads to the Identification of R2R01, a Potent, Long-Acting RXFP1 Agonist for Cardiovascular and Renal Diseases” (J Med Chem, 2025).
Starred links: 1 amine or outer side, 2 acyl side, 3 side chain; linkers in the order of their positions; H or OH if unused. Non-standard residues stand in square brackets, D forms with d. Residues, ends and D or L forms follow the SMILES beside them. Groups on a side chain read outwards from the residue. ξ: configuration not given here. *: point of attachment. X2 = CCCCCCCCCCCCCCCC(=O)N[C@@H](CCC(=O)N[C@@H](CCC(=O)N[C@@H](CCC(=O)NCCCOCCOCCOCCCNC(=O)CCC(=O)NCCCOCCOCCOCCCNC(=O)CCC(=O)NCCCOCCOCCOCCCN*)C(=O)O)C(=O)O)C(=O)O; PEG12 = NCCOCCOCCOCCOCCOCCOCCOCCOCCOCCOCCOCCOCCC(=O)O; γGlu = O=C(O)[C@H](CCC(=O)[*:2])N[*:1]; ξγGlu = O=C(O)C(CCC(=O)[*:2])N[*:1]; Stearoyl = CCCCCCCCCCCCCCCCCC(=O)*; Palmitoyl = CCCCCCCCCCCCCCCC(=O)*; Suc = O=C(CCC(=O)[*:2])[*:1]; αMeK = C[C@](N)(CCCCN)C(=O)O; Nle = CCCC[C@H](N)C(=O)O; AEEA = NCCOCCOCC(=O)O; Aib = CC(C)(N)C(=O)O

Tests used:
Relaxin receptor 1 [1] = target: T1, Relaxin receptor 1 (Homo sapiens, UniProt Q9HBX9); test: Agonist activity at human RXFP1 expressed in human OVCAR-5 cells assessed as intracellular cAMP accumulation incubated for 30 mins by HTRF assay; assay type: functional, cell-based
T1 sequence (Q9HBX9 whole entry): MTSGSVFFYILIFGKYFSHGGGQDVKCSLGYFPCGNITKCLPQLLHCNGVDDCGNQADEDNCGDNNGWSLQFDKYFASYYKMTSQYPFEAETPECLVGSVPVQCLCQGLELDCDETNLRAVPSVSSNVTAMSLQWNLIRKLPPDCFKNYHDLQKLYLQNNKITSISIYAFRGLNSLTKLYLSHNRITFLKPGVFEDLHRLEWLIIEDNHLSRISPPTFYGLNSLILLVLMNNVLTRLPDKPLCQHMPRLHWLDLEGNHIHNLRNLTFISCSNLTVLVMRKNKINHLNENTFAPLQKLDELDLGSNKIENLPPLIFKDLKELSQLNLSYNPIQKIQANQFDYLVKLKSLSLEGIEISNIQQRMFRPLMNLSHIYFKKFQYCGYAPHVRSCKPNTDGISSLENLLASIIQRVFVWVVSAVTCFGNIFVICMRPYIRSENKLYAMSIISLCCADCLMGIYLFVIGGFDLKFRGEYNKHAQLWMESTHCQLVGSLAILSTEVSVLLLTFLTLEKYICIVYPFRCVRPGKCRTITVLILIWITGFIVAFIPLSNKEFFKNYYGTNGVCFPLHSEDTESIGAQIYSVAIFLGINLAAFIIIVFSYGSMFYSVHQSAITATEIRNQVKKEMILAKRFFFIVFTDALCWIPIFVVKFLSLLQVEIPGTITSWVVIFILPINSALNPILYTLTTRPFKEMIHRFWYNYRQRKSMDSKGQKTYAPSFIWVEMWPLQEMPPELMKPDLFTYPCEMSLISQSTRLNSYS

Relaxin receptor 1 [2] = target: T1, Relaxin receptor 1; test: Agonist activity at human RXFP1 expressed in 2%HSA treated human OVCAR-5 cells assessed as intracellular cAMP accumulation incubated for 30 mins with 2% HSA pretreated compound by HTRF assay; assay type: functional, cell-based
[3] = target: T2, Relaxin receptor 1 (Homo sapiens) (UniProt Q9HBX9); test: Agonist activity at human RXFP1 expressed in human OVCAR-5 cells assessed as intracellular cAMP accumulation by measuring maximal efficacy incubated for 30 mins by HTRF assay relative to control; assay type: functional, cell-based; settings: filed as agonist
T2 sequence (whole entry): T1 sequence (Q9HBX9 whole entry)

[4] = target: T2, Relaxin receptor 1 (Homo sapiens); test: Agonist activity at human RXFP1 expressed in 2%HSA treated human OVCAR-5 cells assessed as intracellular cAMP accumulation by measuring maximal efficacy incubated for 30 mins with 2% HSA pretreated compound by HTRF assay relative to control; assay type: functional, cell-based; settings: filed as agonist
[5] = Half-life in male Sprague-Dawley rat at 1 mg/kg, iv measured after 198 hrs by LC-HRMS analysis; assay type: ADME, organism-based; settings: in vivo

SMILES | EC50 (Relaxin receptor 1 [1]) | EC50 (Relaxin receptor 1 [2]) | Emax [3] | Emax [4] | half-life [5]
CCCCCCCCCCCCCCCC(=O)N[C@@H](CCC(=O)N[C@@H](CCC(=O)N[C@@H](CCC(=O)NCCCOCCOCCOCCCNC(=O)CCC(=O)NCCCOCCOCCOCCCNC(=O)CCC(=O)NCCCOCCOCCOCCCNC(=O)CCC(=O)NCCCC[C@H](NC(=O)[C@@H](NC(=O)[C@H](CCCCNC(C)=O)NC(=O)[C@H](C)NC(=O)[C@H](CCCNC(=N)N)NC(=O)[C@@H](NC(=O)[C@H](CCCCN)NC(=O)[C@H](CCC(=O)O)NC(=O)[C@H](CCCNC(=N)N)NC(=O)CNC(=O)[C@H](CCC(=O)O)NC(=O)[C@H](CC(C)C)NC(C)=O)C(C)C)[C@@H](C)CC)C(=O)NC(C)(C)C(=O)N[C@@H](CCC(=O)O)C(=O)NCC(=O)N[C@@H](CCCC)C(=O)N[C@@H](CO)C(=O)N[C@H](C(=O)N[C@@H](Cc1ccccc1)C(=O)N[C@@H](CO)C(=O)N[C@@](C)(CCCCN)C(=O)N[C@@H](CCCNC(=N)N)C(=O)N[C@@H](C)C(=O)N[C@@H](CCCCNC(C)=O)C(N)=O)[C@@H](C)O)C(=O)O)C(=O)O)C(=O)O (Ac-LEGREKVRAK(Ac)IK([Suc-X2])[Aib]EG[Nle]STFS[αMeK]RAK(Ac)-NH2) | 0.43 nM | 31.7 nM | 91% | 89% | –
CCCCCCCCCCCCCCCC(=O)N[C@@H](CCC(=O)N[C@@H](CCC(=O)N[C@@H](CCC(=O)NCCCOCCOCCOCCCNC(=O)CCC(=O)NCCCOCCOCCOCCCNC(=O)CCC(=O)NCCCOCCOCCOCCCNC(=O)CCC(=O)NCCCC[C@H](NC(=O)[C@H](C)NC(=O)[C@H](CCCNC(=N)N)NC(=O)[C@@H](NC(=O)[C@H](CCCCN)NC(=O)[C@H](CCC(=O)O)NC(=O)[C@H](CCCNC(=N)N)NC(=O)CNC(=O)[C@H](CCC(=O)O)NC(=O)[C@H](CC(C)C)NC(C)=O)C(C)C)C(=O)N[C@H](C(=O)NC(C)(C)C(=O)NC(C)(C)C(=O)N[C@@H](CCC(=O)O)C(=O)NCC(=O)N[C@@H](CCC(N)=O)C(=O)N[C@@H](CO)C(=O)N[C@H](C(=O)N[C@@H](Cc1ccccc1)C(=O)N[C@@H](CO)C(=O)N[C@@](C)(CCCCN)C(=O)N[C@@H](CCCNC(=N)N)C(=O)N[C@@H](C)C(=O)N[C@@H](CCCCNC(C)=O)C(N)=O)[C@@H](C)O)[C@@H](C)CC)C(=O)O)C(=O)O)C(=O)O (Ac-LEGREKVRAK([Suc-X2])I[Aib][Aib]EGQSTFS[αMeK]RAK(Ac)-NH2) | 0.06 nM | 19.4 nM | 95% | 94% | 11.5 h
CCCCCCCCCCCCCCCC(=O)N[C@@H](CCC(=O)N[C@@H](CCC(=O)N[C@@H](CCC(=O)NCCCC[C@H](NC(=O)CCOCCOCCOCCOCCOCCOCCOCCOCCOCCOCCOCCOCCNC(=O)[C@H](CCCCNC(C)=O)NC(=O)[C@H](CCCCN)NC(=O)[C@H](CCCNC(=N)N)NC(=O)C(C)(C)NC(=O)[C@H](CO)NC(=O)[C@H](Cc1c[nH]c2ccccc12)NC(=O)[C@@H](NC(=O)[C@H](CO)NC(=O)[C@H](CCCC)NC(=O)CNC(=O)[C@H](CCC(=O)O)NC(=O)C(C)(C)NC(=O)C(C)(C)NC(=O)[C@@H](NC(=O)[C@H](CCCCNC(C)=O)NC(=O)C(C)(C)NC(=O)[C@H](CCCNC(=N)N)NC(=O)[C@@H](NC(=O)[C@H](CCCCN)NC(=O)[C@H](CCC(=O)O)NC(=O)[C@H](CCCNC(=N)N)NC(=O)CNC(=O)[C@H](CCC(=O)O)NC(=O)[C@H](CC(C)C)NC(C)=O)C(C)C)[C@@H](C)CC)[C@@H](C)O)C(N)=O)C(=O)O)C(=O)O)C(=O)O (Ac-LEGREKVR[Aib]K(Ac)I[Aib][Aib]EG[Nle]STWS[Aib]RKK(Ac)[PEG12]K([γGlu-γGlu-γGlu-Palmitoyl])-NH2) | – | 46 nM | 86% | 82% | 6.9 h

More lines, now with the values ahead:

EC50 (Relaxin receptor 1 [1]) | EC50 (Relaxin receptor 1 [2]) | Emax [3] | Emax [4] | half-life [5] | SMILES
– | > 2000 nM | 88% | – | – | CCCCCCCCCCCCCCCC(=O)N[C@@H](CCC(=O)N[C@@H](CCC(=O)N[C@@H](CCC(=O)NCCOCCOCC(=O)NCCOCCOCC(=O)NCCOCCOCC(=O)NCCCC[C@H](NC(=O)CNC(=O)[C@H](CCC(=O)O)NC(=O)C(C)(C)NC(=O)C(C)(C)NC(=O)[C@@H](NC(=O)[C@H](CCCCNC(C)=O)NC(=O)[C@H](C)NC(=O)[C@H](CCCNC(=N)N)NC(=O)[C@@H](NC(=O)[C@H](CCCCN)NC(=O)[C@H](CCC(=O)O)NC(=O)[C@H](CCCNC(=N)N)NC(=O)CNC(=O)[C@H](CCC(=O)O)NC(=O)[C@H](CC(C)C)NC(C)=O)C(C)C)[C@@H](C)CC)C(=O)N[C@@H](CO)C(=O)N[C@H](C(=O)N[C@@H](Cc1c[nH]c2ccccc12)C(=O)N[C@@H](CO)C(=O)NC(C)(C)C(=O)N[C@@H](CCCNC(=N)N)C(=O)N[C@@H](CCCCN)C(=O)N[C@@H](CCCCNC(C)=O)C(N)=O)[C@@H](C)O)C(=O)O)C(=O)O)C(=O)O (Ac-LEGREKVRAK(Ac)I[Aib][Aib]EGK([AEEA-AEEA-AEEA-γGlu-γGlu-γGlu-Palmitoyl])STWS[Aib]RKK(Ac)-NH2)
– | 47.2 nM | 88% | 82% | – | CCCCCCCCCCCCCCCCCC(=O)N[C@@H](CCC(=O)N[C@@H](CCC(=O)N[C@@H](CCC(=O)NCCOCCOCC(=O)NCCOCCOCC(=O)NCCOCCOCC(=O)NCCCC[C@H](NC(=O)[C@H](CCCCNC(C)=O)NC(=O)[C@H](CCCCN)NC(=O)[C@H](CCCNC(=N)N)NC(=O)C(C)(C)NC(=O)[C@H](CO)NC(=O)[C@H](Cc1c[nH]c2ccccc12)NC(=O)[C@@H](NC(=O)[C@H](CO)NC(=O)[C@H](CCC(N)=O)NC(=O)CNC(=O)[C@H](CCC(=O)O)NC(=O)C(C)(C)NC(=O)C(C)(C)NC(=O)[C@@H](NC(=O)[C@H](CCCCNC(C)=O)NC(=O)[C@H](C)NC(=O)[C@H](CCCNC(=N)N)NC(=O)[C@@H](NC(=O)[C@H](CCCCN)NC(=O)[C@H](CCC(=O)O)NC(=O)[C@H](CCCNC(=N)N)NC(=O)CNC(=O)[C@H](CCC(=O)O)NC(=O)[C@H](CC(C)C)NC(C)=O)C(C)C)[C@@H](C)CC)[C@@H](C)O)C(N)=O)C(=O)O)C(=O)O)C(=O)O (Ac-LEGREKVRAK(Ac)I[Aib][Aib]EGQSTWS[Aib]RKK(Ac)K([AEEA-AEEA-AEEA-γGlu-γGlu-γGlu-Stearoyl])-NH2)
1.6 nM | 77 nM | 91% | 80% | – | CCCCCCCCCCCCCCCC(=O)N[C@@H](CCC(=O)N[C@@H](CCC(=O)N[C@@H](CCC(=O)NCCCC[C@H](NC(=O)COCCOCCNC(=O)COCCOCCNC(=O)COCCOCCNC(=O)[C@H](CCCCNC(C)=O)NC(=O)[C@H](CCCCN)NC(=O)[C@H](CCCNC(=N)N)NC(=O)C(C)(C)NC(=O)[C@H](CO)NC(=O)[C@H](Cc1c[nH]c2ccccc12)NC(=O)[C@@H](NC(=O)[C@H](CO)NC(=O)[C@H](CCCC)NC(=O)CNC(=O)[C@H](CCC(=O)O)NC(=O)C(C)(C)NC(=O)C(C)(C)NC(=O)[C@@H](NC(=O)[C@H](CCCCNC(C)=O)NC(=O)[C@H](C)NC(=O)[C@H](CCCNC(=N)N)NC(=O)[C@@H](NC(=O)[C@H](CCCCN)NC(=O)[C@H](CCC(=O)O)NC(=O)[C@H](CCCNC(=N)N)NC(=O)CNC(=O)[C@H](CCC(=O)O)NC(=O)[C@H](CC(C)C)NC(C)=O)C(C)C)[C@@H](C)CC)[C@@H](C)O)C(N)=O)C(=O)O)C(=O)O)C(=O)O (Ac-LEGREKVRAK(Ac)I[Aib][Aib]EG[Nle]STWS[Aib]RKK(Ac)[AEEA][AEEA][AEEA]K([γGlu-γGlu-γGlu-Palmitoyl])-NH2)
14.5 nM | > 2000 nM | 78% | – | – | CCCCCCCCCCCCCCCC(=O)N[C@@H](CCC(=O)N[C@@H](CCC(=O)NC(CCC(=O)NCCOCCOCC(=O)NCCOCCOCC(=O)NCCOCCOCC(=O)NCCCC[C@H](NC(=O)[C@H](C)NC(=O)[C@H](CCCNC(=N)N)NC(=O)[C@@H](NC(=O)[C@H](CCCCN)NC(=O)[C@H](CCC(=O)O)NC(=O)[C@H](CCCNC(=N)N)NC(=O)CNC(=O)[C@H](CCC(=O)O)NC(=O)[C@H](CC(C)C)NC(C)=O)C(C)C)C(=O)N[C@H](C(=O)NC(C)(C)C(=O)NC(C)(C)C(=O)N[C@@H](CCC(=O)O)C(=O)NCC(=O)N[C@@H](CCCC)C(=O)N[C@@H](CO)C(=O)N[C@H](C(=O)N[C@@H](Cc1c[nH]c2ccccc12)C(=O)N[C@@H](CO)C(=O)NC(C)(C)C(=O)N[C@@H](CCCNC(=N)N)C(=O)N[C@@H](CCCCN)C(=O)N[C@@H](CCCCNC(C)=O)C(N)=O)[C@@H](C)O)[C@@H](C)CC)C(=O)O)C(=O)O)C(=O)O (stereo not given in full) (Ac-LEGREKVRAK([AEEA-AEEA-AEEA-ξγGlu-γGlu-γGlu-Palmitoyl])I[Aib][Aib]EG[Nle]STWS[Aib]RKK(Ac)-NH2)
